Results on 1 molecule are retold here after PMC3075623 (2011).

SMILES strings stand for the structures.

The target in this test is T1, ABL2 (ABL-related gene, ARG) (Homo sapiens, UniProt P42684).
T1 sequence (P42684 279-546): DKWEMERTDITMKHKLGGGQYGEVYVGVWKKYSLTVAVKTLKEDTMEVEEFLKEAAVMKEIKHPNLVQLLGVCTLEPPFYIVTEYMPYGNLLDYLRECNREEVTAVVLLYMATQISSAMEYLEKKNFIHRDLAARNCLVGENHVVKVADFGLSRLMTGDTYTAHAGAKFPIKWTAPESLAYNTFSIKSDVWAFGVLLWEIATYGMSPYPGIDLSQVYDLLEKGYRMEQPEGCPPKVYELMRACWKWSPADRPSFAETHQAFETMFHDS
As to the kind of experiment: cocrystal structure. The class given is binding.

Turning to `Nc1nc(Nc2ccc(S(N)(=O)=O)cc2)nn1C(=S)Nc1c(F)cccc1F` [compound 2, 5-amino-3-((4-(aminosulfonyl)phenyl)amino)-N-(2,6-difluorophenyl)-1H-1,2,4-triazole-1-carbothioamide], the cocrystal structure entry is “The ligand is bound to the protein by hydrogen bonds to the backbone carbonyls of residues Glu362 and Met364”.
